Drawing on BindingDB's records for doi:10.7270/Q2M32T6M (Vanderbilt Screening Center for GPCRs, Ion Channels and …, 2009), this text covers EC50 for 42 compounds.

One assay deals with T1, Solute carrier family 12 member 5 (Homo sapiens, UniProt Q9H2X9).
T1 sequence (Q9H2X9 whole entry): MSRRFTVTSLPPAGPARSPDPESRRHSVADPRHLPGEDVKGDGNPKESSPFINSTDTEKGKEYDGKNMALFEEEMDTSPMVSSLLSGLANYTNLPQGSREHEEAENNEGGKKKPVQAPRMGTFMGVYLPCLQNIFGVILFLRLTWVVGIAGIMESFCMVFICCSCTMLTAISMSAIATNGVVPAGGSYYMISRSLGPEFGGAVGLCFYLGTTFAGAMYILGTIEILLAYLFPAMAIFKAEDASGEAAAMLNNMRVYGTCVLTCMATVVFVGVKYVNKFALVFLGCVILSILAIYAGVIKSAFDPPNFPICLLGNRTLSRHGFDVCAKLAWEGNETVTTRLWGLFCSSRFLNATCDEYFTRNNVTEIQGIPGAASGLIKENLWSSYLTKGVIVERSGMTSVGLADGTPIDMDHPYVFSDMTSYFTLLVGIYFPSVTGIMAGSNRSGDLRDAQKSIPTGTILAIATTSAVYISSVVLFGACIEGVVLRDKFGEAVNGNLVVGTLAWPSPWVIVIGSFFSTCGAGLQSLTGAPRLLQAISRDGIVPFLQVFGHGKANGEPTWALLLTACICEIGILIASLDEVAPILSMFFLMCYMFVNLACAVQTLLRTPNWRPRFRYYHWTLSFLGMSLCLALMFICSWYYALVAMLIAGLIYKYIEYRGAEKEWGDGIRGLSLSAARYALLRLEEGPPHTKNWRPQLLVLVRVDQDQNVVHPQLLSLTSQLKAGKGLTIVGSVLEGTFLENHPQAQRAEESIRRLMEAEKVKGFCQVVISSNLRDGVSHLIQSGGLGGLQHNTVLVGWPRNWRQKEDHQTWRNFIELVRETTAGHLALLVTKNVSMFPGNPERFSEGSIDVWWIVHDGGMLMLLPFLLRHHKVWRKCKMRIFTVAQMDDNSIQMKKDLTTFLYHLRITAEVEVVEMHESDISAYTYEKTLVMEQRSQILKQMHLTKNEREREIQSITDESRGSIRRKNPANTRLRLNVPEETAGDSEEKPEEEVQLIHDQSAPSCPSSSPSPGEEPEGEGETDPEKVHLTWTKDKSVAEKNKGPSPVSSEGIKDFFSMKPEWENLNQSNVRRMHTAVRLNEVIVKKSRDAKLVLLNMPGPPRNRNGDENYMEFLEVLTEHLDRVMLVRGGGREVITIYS
The experiment in a line: KCC2 modulator potency by thallium flux, dose response, cell-based, HEK293 KCC2, FluoZin-2 fluorescence (AID 1736).
Conditions: not given
As a reminder, the EC50 is the concentration that produces a half-maximal response. With `O=C(CSc1ccc(-c2cccs2)nn1)Nc1ccccc1F` [MLS000621184], the EC50 came to 1.68 µM. That is a single-digit micromolar value.
Still for that read-out and setting: with `CC1Cc2ccccc2N1C(=O)CSc1nnc(CNc2ccccc2)o1` (configuration not stated) [1-(2-Methyl-2,3-dihydro-indol-1-yl)-2-(5-phenylaminomethyl-[1,3,4]oxadiazol-2-ylsulfanyl)-ethanone] the figure was 0.137 µM; with `O=C(CSc1nnc(C2CC2)n1Cc1ccccc1)c1cc2ccccc2o1` [1-(1-benzofuran-2-yl)-2-[(4-benzyl-5-cyclopropyl-1,2,4-triazol-3-yl)sulfanyl]ethanone], 3.85 µM; with `Sc1nnc(Cc2cccc3ccccc23)o1` [5-(1-naphthalenylmethyl)-3H-1,3,4-oxadiazole-2-thione], 0.283 µM.
On the same count and under the same terms, with `Cc1cc(C(=O)COC(=O)CCc2nc3ccccc3s2)c(C)n1C` [3-(1,3-benzothiazol-2-yl)propanoic acid [2-oxo-2-(1,2,5-trimethyl-3-pyrrolyl)ethyl] ester] the figure was 1.94 µM; with `O=C(Cn1nc(-c2ccccc2)ccc1=O)NCc1ccc2c(c1)OCO2` [2-(6-keto-3-phenyl-pyridazin-1-yl)-N-piperonyl-acetamide], 1.94 µM; with `Cc1ccc2oc(-c3ccc(C)c(NC(=S)NC(=O)c4cccs4)c3)nc2c1` [1-[2-Methyl-5-(5-methyl-benzooxazol-2-yl)-phenyl]-3-(thiophene-2-carbonyl)-thiourea], 0.761 µM.
The same measure, in the same setting: for `CCn1c(=O)n(CC)c2cc(S(=O)(=O)N3CCC(c4ccccc4)CC3)ccc21` [1,3-diethyl-5-(4-phenylpiperidin-1-yl)sulfonyl-benzimidazol-2-one] the value was 13.2 µM; for `COCCN1C(=O)/C(=C/c2ccc(OCc3ccc(C(=O)O)cc3)c(OC)c2)S/C1=N/c1ccccc1` [4-[(2-methoxy-4-{[3-(2-methoxyethyl)-4-oxo-2-(phenylimino)-1,3-thiazolidin-5-ylidene]methyl}phenoxy)methyl]benzoic acid], 27.3 µM; for `CCOc1ccc(C(CC(=O)O)NC(=O)C(Sc2ccccc2)c2ccccc2)cc1` (configuration not stated) [3-(4-ethoxyphenyl)-3-[(2-phenyl-2-phenylsulfanyl-ethanoyl)amino]propanoic acid], 23.3 µM.
In turn, `O=C(NNc1nc(-c2ccccc2)cs1)c1cccs1` [MLS000858987] registered an EC50 of 0.189 µM.
Still for that read-out and setting: for `O=C(C1CCN(S(=O)(=O)c2cccs2)CC1)N1CCc2ccccc2C1` [3,4-dihydro-1H-isoquinolin-2-yl-(1-thiophen-2-ylsulfonyl-4-piperidinyl)methanone] the value was 2650 µM; for `O=[N+]([O-])c1ccccc1C=C[CH+][N-]n1c(-c2ccc(Cl)cc2)n[nH]c1=S` [MLS000555506], 15.5 µM; for `C=CCNc1oc(Cc2cccc3ccccc23)nc1C#N` [2-(1-naphthalenylmethyl)-5-(prop-2-enylamino)-4-oxazolecarbonitrile], 4.49 µM.
The same measure, in the same setting: with `Cc1ccc(OCCC(=O)OCC(=O)N2c3ccccc3CC2C)cc1` (configuration not stated) [3-(4-methylphenoxy)propanoic acid [2-(2-methyl-2,3-dihydroindol-1-yl)-2-oxoethyl] ester] the figure was 2.68 µM.
On the same count and under the same terms, with `CCN(CC)S(=O)(=O)c1ccc(NC(=O)CSc2ncnc3ccccc23)cc1` [MLS000393282] the figure was 3 µM; with `Cc1oc(-c2ccccc2)nc1C[S+]([O-])CC(=O)N1CCc2ccccc2C1` (configuration not stated) [1-(3,4-dihydro-1H-isoquinolin-2-yl)-2-[(5-methyl-2-phenyl-1,3-oxazol-4-yl)methylsulfinyl]ethanone], 3.68 µM; with `O=C(O)c1cc(-c2ccc(F)cc2F)ccc1O`, 3.25 µM.
Turning to `Oc1ccccc1CN=Nc1nc2ccccc2o1` [(6E)-6-[(1,3-benzoxazol-2-ylhydrazo)methylidene]-1-cyclohexa-2,4-dienone], the EC50 amounted to 367 µM.
For the compound `O=C(NCc1cccnc1)c1ccc(COc2ccccc2Br)o1` [5-[(2-bromanylphenoxy)methyl]-N-(pyridin-3-ylmethyl)furan-2-carboxamide], the EC50 stood at 13.8 µM.
`CC1CCCCN1C(=O)CSc1ccc(-c2ccc(F)cc2)nn1` (configuration not stated) [2-[6-(4-Fluoro-phenyl)-pyridazin-3-ylsulfanyl]-1-(2-methyl-piperidin-1-yl)-ethanone]: the EC50 turned out to be 3.78 µM.
Same read-out and setting: with `CCC(Cc1ccccc1)NC(=O)CN(C)S(=O)(=O)c1ccc2c(c1)c(=O)n(C)c(=O)n2C` (configuration not stated) [2-[(1,3-dimethyl-2,4-dioxo-6-quinazolinyl)sulfonyl-methylamino]-N-(1-phenylbutan-2-yl)acetamide] the figure was 7.75 µM; with `CC(C)N1C(=O)S/C(=C/c2ccccc2OCc2ccc(C(=O)O)cc2)C1=O`, 2.21 µM.
`COc1ccccc1N1CCN(C(=S)NC(=O)/C=C/c2ccccc2)CC1` [(E)-N-[4-(2-Methoxy-phenyl)-piperazine-1-carbothioyl]-3-phenyl-acrylamide]: the midpoint of the response, the EC50, lay at 11.9 µM.
The same measure, in the same setting: for `CNC(=O)/C(=C\C=C\c1ccccc1)NC(=O)c1ccc([N+](=O)[O-])cc1` [MLS000570424] the value was 3.38 µM; for `Cc1c(C(=O)NCCSCc2ccc(F)cc2)cnn1-c1ccc(Cl)cc1` [1-(4-chlorophenyl)-N-[2-[(4-fluorobenzyl)thio]ethyl]-5-methyl-pyrazole-4-carboxamide], 471 µM; for `O=C(NCC1CCCO1)C(c1cccs1)N(C(=O)c1ccc(-c2ccccc2)[nH]1)C1CCCC1` (configuration not stated) [5-Phenyl-1H-pyrrole-2-carboxylic acid cyclopentyl-{[(tetrahydro-furan-2-ylmethyl)-carbamoyl]-thiophen-2-yl-methyl}-amide], 7.73 µM.
On the same count and under the same terms, with `COc1cc(OC)c(C2=NOC(C(=O)NCCc3ccccc3)C2)cc1Cl` (configuration not stated) [3-(5-chloranyl-2,4-dimethoxy-phenyl)-N-(2-phenylethyl)-4,5-dihydro-1,2-oxazole-5-carboxamide] the figure was 47.1 µM.
The compound `CCc1ccc(Nc2nnc(SCC(=O)Nc3sccc3C(N)=O)s2)cc1` [2-[2-[[5-[(4-ethylphenyl)amino]-1,3,4-thiadiazol-2-yl]sulfanyl]ethanoylamino]thiophene-3-carboxamide] came in with an EC50 of 3.54 µM.
Same read-out and setting: with `O=c1[nH]c2c(s1)C(c1ccccc1)c1c(c(O)n(-c3ccccc3)c1O)S2` (configuration not stated) the figure was 0.0458 µM; with `O=[N+]([O-])c1cc(-n2c(O)c3c(c2O)CCCC3)ccc1NC1CCN(Cc2ccccc2)CC1` [2-[3-nitro-4-[[1-(phenylmethyl)-4-piperidinyl]amino]phenyl]-3a,4,5,6,7,7a-hexahydroisoindole-1,3-dione], 28.1 µM; with `O=C(NCc1nc(-c2ccccc2)cs1)c1ccccc1` [MLS000661971], 544 µM.
`O=C(O)c1cc([N+](=O)[O-])ccc1NCc1ccccc1` [2-(benzylamino)-5-nitro-benzoic acid]: the EC50 came to 1490 µM.

The assay is the same for the next values; noted with them: inactive by the depositor's call.
Take `Cc1ccc(C(=O)CSc2nnc(COc3cccc4cccnc34)o2)cc1` [1-(4-methylphenyl)-2-[[5-(8-quinolinyloxymethyl)-1,3,4-oxadiazol-2-yl]thio]ethanone]: the EC50 turned out to be 8.12 µM.
Same read-out and setting: for `Sc1ccc2ccccc2n1` [MLS001006012] the value was 7.95 µM; for `Cc1ccc(S(=O)(=O)NCc2ccc(C(=O)N3CCN(Cc4ccccc4)CC3)cc2)cc1` [4-methyl-N-[[4-[4-(phenylmethyl)piperazin-1-yl]carbonylphenyl]methyl]benzenesulfonamide], 6.59 µM; for `Cc1ccc(N(CC(=O)NCCSc2ccccn2)S(=O)(=O)c2ccc(F)cc2)cc1` [2-(N-(4-fluorophenyl)sulfonyl-4-methyl-anilino)-N-[2-(2-pyridylthio)ethyl]acetamide], 2.87 µM.
The same measure, in the same setting: with `Cc1[nH][nH]c(=O)c1C(c1ccc(-c2ccc(Cl)c(Cl)c2)o1)c1c(C)[nH][nH]c1=O` the figure was 130 µM; with `CCOc1ccc(C(C(=O)NC2CCCC2)N(CCCO)C(=O)c2ccc(-c3ccccc3)[nH]2)cc1` (configuration not stated) [N-[2-(cyclopentylamino)-1-(4-ethoxyphenyl)-2-oxoethyl]-N-(3-hydroxypropyl)-5-phenyl-1H-pyrrole-2-carboxamide], 843 µM; with `O=c1c2ccccc2[nH]c(=S)n1CCN1CCC(=C(c2ccc(F)cc2)c2ccc(F)cc2)CC1` [SMR000058550], 181 µM.
The same measure, in the same setting: with `O=C(NCCCCc1ccccc1)C1CC(c2ccccc2C(F)(F)F)=NO1` (configuration not stated) [MLS000561910] the figure was 40.9 µM.
In the case of `O=C(CSc1nnc(CNc2ccccc2)o1)c1ccc2c(c1)OCCO2` [1-(2,3-Dihydro-benzo[1,4]dioxin-6-yl)-2-(5-phenylaminomethyl-[1,3,4]oxadiazol-2-ylsulfanyl)-ethanone], the EC50 amounted to 2.09 µM.
